Laboratory results published in paper PMC4354951 (European journal of medicinal chemistry, 2008).

Assays:
rat P2Y6 receptor = rat P2Y6 receptor (Rattus norvegicus, UniProt Q63371); test: Increase in [Ca2+]i in 1321N1 astrocytoma cells expressing P2Y6 receptor; type: cell-based; conditions: 1321N1 cell transfectants; for EC50: read-out: EC50 of analogue-induced increase in [Ca2+]i, P2Y6
human P2Y4 receptor = human P2Y4 receptor (Homo sapiens, UniProt P51582); test: Increase in [Ca2+]i in 1321N1 astrocytoma cells expressing P2Y4 receptor; type: cell-based; conditions: 1321N1 cell transfectants; for EC50: read-out: EC50 of analogue-induced increase in [Ca2+]i, P2Y4
human NTPDase3 = biological target: T1, human NTPDase3 (Homo sapiens, UniProt O75355); test: Hydrolysis by NTPDase3; type: biochemical; conditions: 100 μM substrate; relative to ATP hydrolysis (100%)
T1 sequence (O75355 1-529): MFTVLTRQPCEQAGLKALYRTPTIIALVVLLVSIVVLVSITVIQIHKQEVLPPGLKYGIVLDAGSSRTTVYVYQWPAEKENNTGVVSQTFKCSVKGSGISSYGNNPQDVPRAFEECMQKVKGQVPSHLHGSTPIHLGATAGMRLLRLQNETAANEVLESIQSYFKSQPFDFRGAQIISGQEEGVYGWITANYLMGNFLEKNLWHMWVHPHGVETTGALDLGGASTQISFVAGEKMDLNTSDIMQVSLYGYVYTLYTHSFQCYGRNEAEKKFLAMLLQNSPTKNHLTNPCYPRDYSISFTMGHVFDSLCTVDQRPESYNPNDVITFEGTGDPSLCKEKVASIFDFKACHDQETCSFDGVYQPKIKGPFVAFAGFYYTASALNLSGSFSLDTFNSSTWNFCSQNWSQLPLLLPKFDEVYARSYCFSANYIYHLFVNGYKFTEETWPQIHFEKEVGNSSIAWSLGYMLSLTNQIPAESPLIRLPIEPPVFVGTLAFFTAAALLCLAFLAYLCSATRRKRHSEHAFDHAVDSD

human NTPDase8 = biological target: T2, human NTPDase8 (Homo sapiens, UniProt Q5MY95); test: Hydrolysis by NTPDase8; type: biochemical; conditions: 100 μM substrate; relative to ATP hydrolysis (100%)
T2 sequence (Q5MY95 1-495): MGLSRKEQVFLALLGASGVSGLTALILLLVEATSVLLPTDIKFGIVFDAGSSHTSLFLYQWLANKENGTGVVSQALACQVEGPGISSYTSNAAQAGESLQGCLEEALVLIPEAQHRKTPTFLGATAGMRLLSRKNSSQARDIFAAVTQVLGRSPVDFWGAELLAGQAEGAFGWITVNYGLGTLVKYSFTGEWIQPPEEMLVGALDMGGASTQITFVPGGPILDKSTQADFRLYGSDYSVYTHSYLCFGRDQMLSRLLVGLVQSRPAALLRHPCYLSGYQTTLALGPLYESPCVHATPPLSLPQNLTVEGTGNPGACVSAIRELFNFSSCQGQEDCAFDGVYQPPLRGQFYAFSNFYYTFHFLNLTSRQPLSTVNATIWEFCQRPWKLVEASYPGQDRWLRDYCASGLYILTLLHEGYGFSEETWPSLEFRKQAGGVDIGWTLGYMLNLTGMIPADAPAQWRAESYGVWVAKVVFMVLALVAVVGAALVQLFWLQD

human NPP1 = biological target: T3, human NPP1 (Homo sapiens, UniProt P22413); test: Hydrolysis by NPP1; type: biochemical; conditions: 100 μM substrate; relative to pnp-TMP hydrolysis (100%)
T3 sequence (P22413 1-925): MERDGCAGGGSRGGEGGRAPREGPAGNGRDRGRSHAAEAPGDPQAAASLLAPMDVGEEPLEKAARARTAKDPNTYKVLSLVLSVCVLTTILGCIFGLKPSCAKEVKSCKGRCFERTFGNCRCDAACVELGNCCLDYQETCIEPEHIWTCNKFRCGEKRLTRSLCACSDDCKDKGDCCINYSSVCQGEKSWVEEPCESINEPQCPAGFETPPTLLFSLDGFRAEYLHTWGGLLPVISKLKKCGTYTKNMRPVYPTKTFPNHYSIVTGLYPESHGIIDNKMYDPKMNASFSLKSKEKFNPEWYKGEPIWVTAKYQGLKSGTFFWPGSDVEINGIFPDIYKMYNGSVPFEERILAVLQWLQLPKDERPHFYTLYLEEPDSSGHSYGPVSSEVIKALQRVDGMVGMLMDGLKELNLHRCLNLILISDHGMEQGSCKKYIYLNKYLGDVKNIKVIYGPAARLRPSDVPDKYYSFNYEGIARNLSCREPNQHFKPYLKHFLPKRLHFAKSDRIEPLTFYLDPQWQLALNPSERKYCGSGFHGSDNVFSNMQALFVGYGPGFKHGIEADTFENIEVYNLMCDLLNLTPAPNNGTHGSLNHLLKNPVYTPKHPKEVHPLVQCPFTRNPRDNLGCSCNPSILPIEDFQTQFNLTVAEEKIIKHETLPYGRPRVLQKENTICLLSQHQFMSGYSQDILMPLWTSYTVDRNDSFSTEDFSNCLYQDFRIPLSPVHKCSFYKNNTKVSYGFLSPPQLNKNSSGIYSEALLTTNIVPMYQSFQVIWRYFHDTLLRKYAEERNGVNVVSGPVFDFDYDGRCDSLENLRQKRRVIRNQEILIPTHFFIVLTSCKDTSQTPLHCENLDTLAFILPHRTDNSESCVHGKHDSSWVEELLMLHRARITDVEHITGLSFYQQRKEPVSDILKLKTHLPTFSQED

human NTPDase2 = biological target: T4, human NTPDase2 (Homo sapiens, UniProt Q9Y5L3); test: Hydrolysis by NTPDase2; type: biochemical; conditions: 100 μM substrate; relative to ATP hydrolysis (100%)
T4 sequence (Q9Y5L3 1-495): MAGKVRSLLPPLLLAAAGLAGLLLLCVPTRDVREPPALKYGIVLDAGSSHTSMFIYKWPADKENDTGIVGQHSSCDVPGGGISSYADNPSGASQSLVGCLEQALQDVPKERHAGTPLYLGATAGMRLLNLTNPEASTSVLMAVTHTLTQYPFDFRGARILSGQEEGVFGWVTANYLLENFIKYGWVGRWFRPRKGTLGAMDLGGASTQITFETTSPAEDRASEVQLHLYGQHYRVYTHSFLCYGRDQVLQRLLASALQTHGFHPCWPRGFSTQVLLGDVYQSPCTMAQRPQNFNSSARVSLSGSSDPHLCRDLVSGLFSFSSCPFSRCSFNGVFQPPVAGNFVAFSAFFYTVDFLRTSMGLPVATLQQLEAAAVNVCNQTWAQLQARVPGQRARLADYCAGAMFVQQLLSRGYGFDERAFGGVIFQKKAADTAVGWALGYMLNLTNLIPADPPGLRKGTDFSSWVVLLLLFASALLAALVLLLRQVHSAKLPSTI

human P2Y4 receptor, sequence (P51582 whole entry): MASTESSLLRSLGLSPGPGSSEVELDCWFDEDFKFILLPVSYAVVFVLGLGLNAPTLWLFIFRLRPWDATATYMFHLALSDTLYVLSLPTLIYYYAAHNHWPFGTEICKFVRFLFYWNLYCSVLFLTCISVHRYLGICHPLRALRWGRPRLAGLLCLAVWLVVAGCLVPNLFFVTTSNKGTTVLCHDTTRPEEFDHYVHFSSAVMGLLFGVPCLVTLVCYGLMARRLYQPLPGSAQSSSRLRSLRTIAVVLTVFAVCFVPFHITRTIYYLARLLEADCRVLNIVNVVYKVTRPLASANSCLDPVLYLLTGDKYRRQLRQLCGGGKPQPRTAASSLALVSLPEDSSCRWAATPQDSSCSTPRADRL
rat P2Y6 receptor, sequence (Q63371 whole entry): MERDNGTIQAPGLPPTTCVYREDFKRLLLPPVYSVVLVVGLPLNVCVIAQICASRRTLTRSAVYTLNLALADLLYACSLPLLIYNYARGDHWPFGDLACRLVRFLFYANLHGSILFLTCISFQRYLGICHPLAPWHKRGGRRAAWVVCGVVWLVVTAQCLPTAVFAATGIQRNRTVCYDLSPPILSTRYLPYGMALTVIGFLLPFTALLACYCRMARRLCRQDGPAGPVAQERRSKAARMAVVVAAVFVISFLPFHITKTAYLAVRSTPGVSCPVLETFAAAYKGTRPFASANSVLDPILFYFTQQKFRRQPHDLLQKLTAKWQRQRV

Row | Compound | agonist activity at P2Y6R (rat P2Y6 receptor) | EC50 (rat P2Y6 receptor) [µM] | agonist activity at P2Y4R (human P2Y4 receptor) | EC50 (human P2Y4 receptor) [µM] | Relative activity of NTPDase3 (human NTPDase3) [%] | Relative activity of NTPDase8 (human NTPDase8) [%] | Relative activity of NPP1 (human NPP1) [%] | Relative activity of NTPDase2 (human NTPDase2) [%]
1 | [BH3-][P+](O)(OC[C@H]1O[C@@H](n2cnc3c(N)ncnc32)[C@H](O)[C@@H]1O)OP(=O)(O)CP(=O)(O)O (single isomer, unassigned) [3B, Adenosine-5′-O-(α-boranotriphosphate)-β,γ-CH2] | insignificant activities | > 100 | insignificant activities | > 100 | 6.0 ± 0.16 | <1 | 4.0 ± 0.12 | 0
2 | [BH3-][P+](O)(OC[C@H]1O[C@@H](n2cnc3c(N)nc(SC)nc32)[C@H](O)[C@@H]1O)OP(=O)(O)CP(=O)(O)O (single isomer, unassigned) [4A, 2-MeS–adenosine-5′-O-(α-boranotriphosphate)-β,γ-CH2] | insignificant activities | > 100 | insignificant activities | > 100 | 2.0 ± 0.26 | 4.0 ± 0.02 | 0 | 1.0 ± 0.1
3 | [BH3-][P+](O)(OC[C@H]1O[C@@H](n2cnc3c(N)ncnc32)[C@H](O)[C@@H]1O)OP(=O)(O)CP(=O)(O)O (single isomer, unassigned) [3A, Adenosine-5′-O-(α-boranotriphosphate)-β,γ-CH2] | insignificant activities | > 100 | insignificant activities | > 100 | 0 | 2.0 ± 0.03 | 0 | 1.0 ± 0.2
